Laboratory results reported in ChEMBL document CHEMBL2157906, “Identification of a dual δ OR antagonist/μ OR agonist as a potential therapeutic for diarrhea-predominant Irritable Bowel Syndrome (IBS-d)” (Bioorg Med Chem Lett, 2012).
pEC50, pIC50, pKi: −log10 of the molar value. Activity calls are given as the source filed them. No cut-off for these calls is given here.

Tests used:
[1] = target: Delta-type opioid receptor (Rattus norvegicus, UniProt P33533); assay: Binding affinity to rat delta opioid receptor
[2] = target: T1, Delta-type opioid receptor (Homo sapiens, UniProt P41143); assay: Agonist activity at delta opioid receptor expressed in CHO-hg cells by [35S]-GTPgammaS binding assay; format: functional, cell-based
[3] = target: T2, Mu-type opioid receptor (Homo sapiens, UniProt P35372); assay: Agonist activity at mu opioid receptor expressed in CHO-hg cells by [35S]-GTPgammaS binding assay; format: functional, cell-based
[4] = target: Mu-type opioid receptor (Rattus norvegicus, UniProt P33535); assay: Binding affinity to rat mu opioid receptor
[5] = target: T3, Kappa-type opioid receptor (Cavia porcellus, UniProt P41144); assay: Binding affinity to guinea pig kappa opioid receptor
[6] = target: T3, Kappa-type opioid receptor; assay: Agonist activity at kappa opioid receptor guinea pig colon tissue; format: functional, tissue-based
[7] = target: T1, Delta-type opioid receptor; assay: Antagonist activity at delta opioid receptor expressed in CHO-hg cells assessed as inhibition of SNC-80-induced [35S]-GTPgammaS binding; format: functional, cell-based
[8] = Antagonist activity at delta opioid receptor in hamster vas deferens tissue; format: functional, tissue-based; details: Cricetinae
[9] = Solubility of the compound at pH 7.4; format: physicochemical; details: buffer
[10] = Half life in human liver microsomess; format: ADME, Microsome; details: liver microsomes
[11] = target: Voltage-gated inwardly rectifying potassium channel KCNH2 (Homo sapiens, UniProt Q12809); assay: Displacement of [3H]-astemizole from human ERG
[12] = target: Cytochrome P450 3A4 (Homo sapiens, UniProt P08684); assay: Inhibition of CYP3A4 in human liver microsomes; format: ADME, Microsome
[13] = target: T2, Mu-type opioid receptor; assay: Binding affinity to human mu opioid receptor

Delta-type opioid receptor (Rattus norvegicus, UniProt P33533), sequence (P33533 whole entry): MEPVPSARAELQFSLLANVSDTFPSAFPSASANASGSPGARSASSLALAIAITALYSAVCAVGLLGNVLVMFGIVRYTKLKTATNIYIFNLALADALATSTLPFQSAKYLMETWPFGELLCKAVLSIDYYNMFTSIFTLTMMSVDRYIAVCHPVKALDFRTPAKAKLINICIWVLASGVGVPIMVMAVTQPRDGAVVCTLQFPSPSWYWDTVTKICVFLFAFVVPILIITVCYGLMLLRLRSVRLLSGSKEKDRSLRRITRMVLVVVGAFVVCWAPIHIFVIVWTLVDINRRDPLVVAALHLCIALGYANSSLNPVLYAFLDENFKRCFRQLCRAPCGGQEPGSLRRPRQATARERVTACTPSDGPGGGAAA
Mu-type opioid receptor (Rattus norvegicus, UniProt P33535), sequence (P33535 whole entry): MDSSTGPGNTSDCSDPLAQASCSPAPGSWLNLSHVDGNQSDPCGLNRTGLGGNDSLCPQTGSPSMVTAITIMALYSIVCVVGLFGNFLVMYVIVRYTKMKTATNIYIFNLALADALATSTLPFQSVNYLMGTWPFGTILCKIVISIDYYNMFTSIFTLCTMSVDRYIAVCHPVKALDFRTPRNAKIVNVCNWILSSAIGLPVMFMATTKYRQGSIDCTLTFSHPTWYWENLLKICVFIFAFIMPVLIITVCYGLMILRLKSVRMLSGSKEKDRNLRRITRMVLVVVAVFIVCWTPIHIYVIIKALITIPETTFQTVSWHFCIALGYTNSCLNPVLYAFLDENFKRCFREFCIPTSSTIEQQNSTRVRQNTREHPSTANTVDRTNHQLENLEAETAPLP
T2 sequence (P35372 whole entry): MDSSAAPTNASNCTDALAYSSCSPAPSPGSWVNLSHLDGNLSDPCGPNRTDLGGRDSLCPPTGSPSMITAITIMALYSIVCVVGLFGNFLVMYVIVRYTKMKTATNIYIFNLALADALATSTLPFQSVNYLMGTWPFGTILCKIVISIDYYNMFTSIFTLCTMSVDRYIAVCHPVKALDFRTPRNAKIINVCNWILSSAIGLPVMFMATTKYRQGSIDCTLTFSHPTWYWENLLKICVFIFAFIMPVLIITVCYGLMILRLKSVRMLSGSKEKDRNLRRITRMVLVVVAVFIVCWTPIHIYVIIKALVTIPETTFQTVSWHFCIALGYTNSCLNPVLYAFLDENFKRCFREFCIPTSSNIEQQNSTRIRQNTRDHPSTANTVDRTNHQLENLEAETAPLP
T1 sequence (P41143 whole entry): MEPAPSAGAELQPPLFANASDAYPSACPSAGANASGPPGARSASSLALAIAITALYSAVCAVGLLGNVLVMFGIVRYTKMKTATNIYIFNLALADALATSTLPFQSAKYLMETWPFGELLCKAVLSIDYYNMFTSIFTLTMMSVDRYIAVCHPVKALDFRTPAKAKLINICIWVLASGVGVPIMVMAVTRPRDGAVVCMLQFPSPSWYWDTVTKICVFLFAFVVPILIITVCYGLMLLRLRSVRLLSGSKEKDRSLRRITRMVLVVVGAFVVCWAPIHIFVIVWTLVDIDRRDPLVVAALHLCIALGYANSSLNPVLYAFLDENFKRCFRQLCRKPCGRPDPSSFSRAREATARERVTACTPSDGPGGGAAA
T3 sequence (P41144 whole entry): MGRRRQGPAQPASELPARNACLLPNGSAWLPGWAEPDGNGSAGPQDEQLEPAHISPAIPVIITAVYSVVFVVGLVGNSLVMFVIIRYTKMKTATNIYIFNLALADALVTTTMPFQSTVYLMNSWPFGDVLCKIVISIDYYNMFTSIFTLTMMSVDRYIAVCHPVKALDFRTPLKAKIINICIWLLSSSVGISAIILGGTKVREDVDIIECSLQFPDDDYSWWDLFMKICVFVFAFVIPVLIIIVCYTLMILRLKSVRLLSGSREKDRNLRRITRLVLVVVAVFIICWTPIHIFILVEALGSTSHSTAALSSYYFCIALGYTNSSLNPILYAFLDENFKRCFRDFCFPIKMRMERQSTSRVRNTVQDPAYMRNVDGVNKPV
Voltage-gated inwardly rectifying potassium channel KCNH2, sequence (Q12809 whole entry): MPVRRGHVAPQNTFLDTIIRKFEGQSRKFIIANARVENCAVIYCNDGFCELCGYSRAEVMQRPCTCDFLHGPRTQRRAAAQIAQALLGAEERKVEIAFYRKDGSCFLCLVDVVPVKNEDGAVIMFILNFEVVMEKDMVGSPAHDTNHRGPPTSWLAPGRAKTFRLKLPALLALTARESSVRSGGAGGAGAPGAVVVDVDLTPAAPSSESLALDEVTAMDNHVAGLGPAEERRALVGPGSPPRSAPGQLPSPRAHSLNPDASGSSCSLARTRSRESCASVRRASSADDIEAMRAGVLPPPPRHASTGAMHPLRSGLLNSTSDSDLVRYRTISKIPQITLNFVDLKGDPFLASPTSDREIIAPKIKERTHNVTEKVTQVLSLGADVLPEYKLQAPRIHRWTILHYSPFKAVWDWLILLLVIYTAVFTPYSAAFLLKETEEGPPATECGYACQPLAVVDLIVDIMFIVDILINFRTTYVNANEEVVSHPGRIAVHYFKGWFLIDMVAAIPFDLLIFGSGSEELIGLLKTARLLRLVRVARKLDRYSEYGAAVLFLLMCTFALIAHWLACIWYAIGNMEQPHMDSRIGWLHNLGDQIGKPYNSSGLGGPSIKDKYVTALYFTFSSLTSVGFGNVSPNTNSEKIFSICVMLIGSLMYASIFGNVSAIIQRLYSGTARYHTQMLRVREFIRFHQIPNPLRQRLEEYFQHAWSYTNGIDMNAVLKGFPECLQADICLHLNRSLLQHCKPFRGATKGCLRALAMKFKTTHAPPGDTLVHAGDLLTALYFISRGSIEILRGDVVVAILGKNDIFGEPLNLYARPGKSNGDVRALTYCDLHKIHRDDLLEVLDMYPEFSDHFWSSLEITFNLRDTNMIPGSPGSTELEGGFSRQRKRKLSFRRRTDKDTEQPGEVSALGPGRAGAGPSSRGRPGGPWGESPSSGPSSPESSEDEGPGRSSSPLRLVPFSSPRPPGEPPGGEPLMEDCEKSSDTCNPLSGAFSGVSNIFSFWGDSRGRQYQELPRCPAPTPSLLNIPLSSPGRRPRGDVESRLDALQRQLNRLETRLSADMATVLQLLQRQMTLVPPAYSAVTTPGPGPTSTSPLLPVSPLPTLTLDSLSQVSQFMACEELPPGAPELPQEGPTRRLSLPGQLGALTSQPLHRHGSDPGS
Cytochrome P450 3A4, sequence (P08684 whole entry): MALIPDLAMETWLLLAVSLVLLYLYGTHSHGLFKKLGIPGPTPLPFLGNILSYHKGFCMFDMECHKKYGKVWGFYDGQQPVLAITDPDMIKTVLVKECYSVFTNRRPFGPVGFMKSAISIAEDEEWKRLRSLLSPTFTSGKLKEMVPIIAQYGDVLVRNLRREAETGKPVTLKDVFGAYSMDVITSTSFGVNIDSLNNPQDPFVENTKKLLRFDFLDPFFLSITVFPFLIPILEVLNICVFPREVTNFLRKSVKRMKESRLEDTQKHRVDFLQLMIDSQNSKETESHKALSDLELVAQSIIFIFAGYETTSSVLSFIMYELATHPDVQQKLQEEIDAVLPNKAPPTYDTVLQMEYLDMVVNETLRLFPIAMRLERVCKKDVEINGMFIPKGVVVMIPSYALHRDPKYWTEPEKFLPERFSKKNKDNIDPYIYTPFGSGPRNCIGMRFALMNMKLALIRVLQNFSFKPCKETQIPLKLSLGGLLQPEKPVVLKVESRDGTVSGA

Cc1cc(O)cc(C)c1C[C@H](N)C(=O)N(C)[C@@H](C)c1nc(-c2ccccc2)c[nH]1
pKi [1]: 7.82

Cc1cc(C(N)=O)cc(C)c1C[C@H](N)C(=O)N1CCCC[C@H]1c1nc(-c2ccccc2)c[nH]1
pEC50 [2]: 6.87
pEC50 [3]: 8.05

COc1ccc(CN(C(=O)[C@@H](N)Cc2c(C)cc(C(N)=O)cc2C)[C@@H](C)c2nc(-c3ccccc3)c[nH]2)cc1C(=O)O [ELUXADOLINE]
pKi [1]: 8.89
pKi [4]: 9.05
pEC50 [2]: < 5.00
pKi [5]: 7.26
pEC50 [6]: 5.80

Cc1cc(C(N)=O)cc(C)c1C[C@H](N)C(=O)N(Cc1cccc(C(=O)O)c1)[C@@H](C)c1nc(-c2ccccc2)c[nH]1
pKi [1]: 9.30
pKi [4]: 9.00
pEC50 [2]: < 5.00
inhibition [7]: Active

Cc1cc(O)cc(C)c1C[C@H](N)C(=O)N1CCCC[C@H]1c1nc(-c2ccccc2)c[nH]1
pEC50 [2]: 7.43
pEC50 [3]: 8.70

COc1ccc(CN(C(=O)[C@@H](N)Cc2c(C)cc(C(N)=O)cc2C)[C@@H](C)c2ncc(-c3ccccc3)[nH]2)cc1C(=O)O [ELUXADOLINE]
inhibition [7]: Active
pIC50 [8]: 7.05

Cc1cc(O)cc(C)c1C[C@H](N)C(=O)N[C@@H](Cc1ccccc1)c1nc(-c2ccccc2)c[nH]1
pKi [4]: 7.89

Cc1cc(O)cc(C)c1C[C@H](N)C(=O)N(Cc1nc(-c2ccccc2)c[nH]1)C(C)C
pKi [1]: 7.82
pKi [4]: 10.00

Cc1cc(O)cc(C)c1C[C@H](N)C(=O)N(Cc1ccccc1)[C@@H](C)c1nc(-c2ccccc2)c[nH]1
pKi [1]: 8.82

COc1ccc(CN(C(=O)[C@@H](N)Cc2c(C)cc(C(N)=O)cc2C)C(C)c2nc(-c3ccccc3)c[nH]2)cc1C(=O)O.Cl.Cl (single isomer, unassigned)
solubility [9]: > 1000 µg/mL
half-life [10]: 2.5 h
pIC50 [11]: < 5.00
pIC50 [12]: < 4.70
pKi [13]: 8.77

Cc1cc(C(N)=O)cc(C)c1C[C@H](N)C(=O)N1Cc2ccccc2C[C@H]1c1nc(-c2ccccc2)c[nH]1
pEC50 [2]: 7.66
pEC50 [3]: 6.79

Cc1cc(O)cc(C)c1C[C@H](N)C(=O)N1Cc2ccccc2C[C@H]1c1nc(-c2ccccc2)c[nH]1
pEC50 [2]: 9.05
pEC50 [3]: 7.57

Cc1cc(O)cc(C)c1C[C@H](N)C(=O)N(C(C)C)[C@@H](C)c1nc(-c2ccccc2)c[nH]1
pKi [1]: 8.85
pKi [4]: 10.52
pEC50 [2]: 6.99

N[C@@H](Cc1ccc(O)cc1)C(=O)N1Cc2ccccc2C[C@H]1c1nc(-c2ccccc2)c[nH]1
pEC50 [2]: 7.72
pEC50 [3]: 5.61

Cc1cc(C(N)=O)cc(C)c1C[C@H](N)C(=O)N(Cc1ccccc1)[C@@H](C)c1nc(-c2ccccc2)c[nH]1
pKi [4]: 9.52
